{"source": "patent US8232289B2", "about": "“Spiropiperidine compounds as ORL-1 receptor antagonists” (Eli Lilly and Company, priority 2009, dated 2012)", "system": "Male Sprague-Dawley rats", "experiment": "Rat dural plasma protein extravasation (PPE) model, oral dosing", "type": "in vivo", "protocol": "All test compounds are prepared in a vehicle solution containing 20% Captisol in 25 mM phosphate buffer (pH 2.0). The positive control compound, sumatriptan, is dissolved in saline. Male Sprague-Dawley rats from Harlan Laboratories (250 to 350 g), that have been fasted overnight, are dosed with test compound, sumatriptan or vehicle by oral gavage (2 mL/kg). Fifty min. post-dose the rats are anesthetized with Nembutal (60 mg/kg, ip) and placed in a stereotaxic frame with the incisor bar set at −2.5 mm. Following a mid-line sagittal scalp incision, 2 pairs of bilateral holes were drilled through the skull (3.2 mm posteriorly, 1.8 and 3.8 mm laterally, all coordinates referenced to bregma). Pairs of stainless steel stimulating electrodes (Rhodes Medical Systems Inc), insulated except at the tips, are lowered through the holes in both hemispheres to a depth of 9.2 mm below the dura.\nA solution of fluoroscein isothiocyanate (FITC) dye-labeled bovine serum albumin (BSA) (FITC-BSA) (20 mg/kg, iv), is injected into the femoral vein 2 minutes prior to electrical stimulation of the trigeminal ganglion to function as the marker for protein extravasation. Sixty minutes following dosing with test compound or vehicle, the left trigeminal ganglion is electrically stimulated for 5 minutes at a current intensity of 1.0 mA (5 Hz, 5 minutes duration).\nFive minutes following stimulation, the rats are killed by exsanguination with 40 mL of saline which also rinses residual FITC/BSA out of the blood vessels. The top of the skull is removed to collect the dural membranes. The membrane samples are removed from both hemispheres, rinsed with water, and spread flat on microscope slides. The slides are dried for 15 minutes on a slide warmer and cover-slipped with a 70% glycerol/water solution.\nA fluorescence microscope equipped with a grating monochromator and a spectrophotometer is used to quantify the amount of FITC-BSA dye in each dural sample. The microscope is equipped with a motorized stage interfaced with a personal computer. This facilitates the computer-controlled movement of the stage, with fluorescence measurements at 25 points (500 μm steps) on each dural sample. The extravasation induced by electrical stimulation of the trigeminal ganglion is an ipsilateral effect (that is occurs only on the side of the dura in which the trigeminal ganglion is stimulated). This allows the other (unstimulated) half of the dura to be used as a control. The extravasation ratio (that is the ratio of the amount of extravasation in the dura from the stimulated side compared to the unstimulated side) is calculated. Animals dosed with vehicle alone or an ineffective dose of the test compound have an extravasation ratio of approximately 2, while totally effective treatments result in a ratio of approximately 1.\nResults are expressed as mean values with standard errors of the mean (±SEM). All statistical evaluations are conducting utilizing ANOVA followed by comparison to the control group by Dunnett's Method. Statistical significance is assumed when p<0.05. Statistical analyses are performed using JMP statistical analysis software (SAS Research Institute, version 6.0.2).", "note": "Marks after values point to notes of the source that are not given here.", "data": [{"smiles": "Cc1nn(-c2ncccc2CO)cc1CN1CCC2(CC1)OCC(F)(F)c1cc(Cl)sc12", "note": "[Example 62, [2-[4-[(2-Chloro-4,4-difluoro-spiro[5H-thieno[2,3-c]pyran-7,4′-piperidine]-1′-yl)methyl]-3-methyl-pyrazol-1-yl]-3-pyridyl]methanol]", "values": [{"measurement": "Extravasation Ratio (mean)", "setting": "0.1 mg/kg po", "value": 1.83}, {"measurement": "Extravasation Ratio (mean)", "setting": "1.0 mg/kg po", "value": "1.44*"}, {"measurement": "Extravasation Ratio (mean)", "setting": "10.0 mg/kg po", "value": "1.20*"}, {"measurement": "Extravasation Ratio (mean)", "setting": "30.0 mg/kg po", "value": "1.14*"}, {"measurement": "blockade of extravasation", "setting": "oral dosing", "value": "effectively block extravasation in a dose dependent manner"}]}]}
